According to patent US12331059B2 (priority 2019, dated 2025):

Test system: U937 leukemia cells
Experiment: not given
Design: species or system NSG mice
Conditions: mouse

`Cc1ncsc1-c1ccc(CNC(=O)C2CC(O)CN2C(=O)C(NC(=O)CCNC(=O)OCCCC2OC3OC4(C)CCC5C(C)CCC(C2C)C35OO4)C(C)(C)C)cc1` (stereo not drawn) [CL-8] was tested, and the “inhibition towards the growth of U937 leukemia cells in vivo” value was “strong inhibition”.

Same assay, conditions: mouse, in vivo

Going from `C[C@H]1[C@H](OC(=O)CCC(=O)O)O[C@@H]2O[C@@]3(C)CC[C@H]4[C@H](C)CC[C@@H]1[C@@]24OO3` [artesunate, reference compound] to `Cc1ncsc1-c1ccc(CNC(=O)C2CC(O)CN2C(=O)C(NC(=O)CCNC(=O)OCCCC2OC3OC4(C)CCC5C(C)CCC(C2C)C35OO4)C(C)(C)C)cc1` (stereo not drawn) [CL-8], the “The proportion of human leukemia cells in bone marrow of mice” value falls from 91.28 ± 2.20 to 0.38 ± 0.08.

Going from `C[C@H]1[C@H](OC(=O)CCC(=O)O)O[C@@H]2O[C@@]3(C)CC[C@H]4[C@H](C)CC[C@@H]1[C@@]24OO3` [artesunate, reference compound] to `Cc1ncsc1-c1ccc(CNC(=O)C2CC(O)CN2C(=O)C(NC(=O)CCNC(=O)OCCCC2OC3OC4(C)CCC5C(C)CCC(C2C)C35OO4)C(C)(C)C)cc1` (stereo not drawn) [CL-8], the “The proportion of human leukemia cells in peripheral blood of mice” value falls from 21.92 ± 2.58 to 0.96 ± 0.16.

First: C[C@H]1[C@H](OC(=O)CCC(=O)O)O[C@@H]2O[C@@]3(C)CC[C@H]4[C@H](C)CC[C@@H]1[C@@]24OO3 [artesunate, reference compound]
Second: Cc1ncsc1-c1ccc(CNC(=O)C2CC(O)CN2C(=O)C(NC(=O)CCNC(=O)OCCCC2OC3OC4(C)CCC5C(C)CCC(C2C)C35OO4)C(C)(C)C)cc1 (stereo not drawn) [CL-8]
The “The proportion of human leukemia cells in spleen of mice” value of the first is higher: 49.77 ± 9.28 for the first, 11.39 ± 21.3 for the second.

Test system: MV4-11 cells
Experiment: cells
Type: cell-based
Conditions: Homo sapiens, MV4-11, 48 h

First: Cc1ncsc1-c1ccc(CNC(=O)C2CC(O)CN2C(=O)C(NC(=O)CCCNC(=O)C23CC4CC(C2)C2(OOC5(CCCCC5)O2)C(C4)C3)C(C)(C)C)cc1 (stereo not drawn) [CL-29]
Second: Cc1ncsc1-c1ccc(CNC(=O)C2CC(O)CN2C(=O)C(NC(=O)CCCCNC(=O)C23CC4CC(C2)C2(OOC5(CCCCC5)O2)C(C4)C3)C(C)(C)C)cc1 (stereo not drawn) [CL-30]
The IC50 of the first is 2.4-fold lower: 3.5 µM for the first, 8.31 µM for the second.

First: Cc1ncsc1-c1ccc(CNC(=O)C2CC(O)CN2C(=O)C(NC(=O)CCCNC(=O)CC2OC3OC4(C)CCC5C(C)CCC(C2C)C35OO4)C(C)(C)C)cc1 (stereo not drawn) [CL-13]
Second: Cc1ncsc1-c1ccc(CNC(=O)C2CC(O)CN2C(=O)C(NC(=O)CCOCCNC(=O)CC2OC3OC4(C)CCC5C(C)CCC(C2C)C35OO4)C(C)(C)C)cc1 (stereo not drawn) [CL-9]
The IC50 of the first is 1.5-fold lower: 3.1 µM for the first, 4.67 µM for the second. The first is the more potent here.

Going from `Cc1ncsc1-c1ccc(CNC(=O)C2CC(O)CN2C(=O)C(NC(=O)CCCCNC(=O)OCCCC2OC3OC4(C)CCC5C(C)CCC(C2C)C35OO4)C(C)(C)C)cc1` (stereo not drawn) [CL-6] to `Cc1ncsc1-c1ccc(CNC(=O)C2CC(O)CN2C(=O)C(NC(=O)CCCNC(=O)OCCCC2OC3OC4(C)CCC5C(C)CCC(C2C)C35OO4)C(C)(C)C)cc1` (stereo not drawn) [CL-5], the IC50 falls from 5.3 µM to 0.55 µM (9.6-fold). The second is the more potent here.

`Cc1ncsc1-c1ccc(CNC(=O)C2CC(O)CN2C(=O)C(NC(=O)CCOCCNC(=O)C23CC4CC(C2)C2(OOC5(CCCCC5)O2)C(C4)C3)C(C)(C)C)cc1` (stereo not drawn) [CL-25] and `Cc1ncsc1-c1ccc(CNC(=O)C2CC(O)CN2C(=O)C(NC(=O)CCOCCOCCNC(=O)C23CC4CC(C2)C2(OOC5(CCCCC5)O2)C(C4)C3)C(C)(C)C)cc1` (stereo not drawn) [CL-26] are within 1.5-fold of each other in IC50: 5.5 µM for the first, 8.1 µM for the second.

`Cc1ncsc1-c1ccc(CNC(=O)C2CC(O)CN2C(=O)C(NC(=O)CCOCCOCCOCCNC(=O)OCCC2OC3OC4(C)CCC5C(C)CCC(C2C)C35OO4)C(C)(C)C)cc1` (stereo not drawn) [CL-19] and `Cc1ncsc1-c1ccc(CNC(=O)C2CC(O)CN2C(=O)C(NC(=O)CCOCCOCCOCCNC(=O)OCCCC2OC3OC4(C)CCC5C(C)CCC(C2C)C35OO4)C(C)(C)C)cc1` (stereo not drawn) [CL-3] are within 1.5-fold of each other in IC50: 0.5 µM for the first, 0.52 µM for the second.

Compared with `Cc1ncsc1-c1ccc(CNC(=O)C2CC(O)CN2C(=O)C(NC(=O)CCOCCOCCOCCNC(=O)CC2OC3OC4(C)CCC5C(C)CCC(C2C)C35OO4)C(C)(C)C)cc1` (stereo not drawn) [CL-11], `Cc1ncsc1-c1ccc(CNC(=O)C2CC(O)CN2C(=O)C(NC(=O)CCOCCOCCNC(=O)CC2OC3OC4(C)CCC5C(C)CCC(C2C)C35OO4)C(C)(C)C)cc1` (stereo not drawn) [CL-10] is 1.5-fold higher in IC50: 29.6 µM for the first, 44.5 µM for the second. The first is the more potent here.

Compared with `Cc1ncsc1-c1ccc(CNC(=O)C2CC(O)CN2C(=O)C(NC(=O)Cc2ccc(CNC(=O)CC3OC4OC5(C)CCC6C(C)CCC(C3C)C46OO5)cc2)C(C)(C)C)cc1` (stereo not drawn) [CL-15], `Cc1ncsc1-c1ccc(CNC(=O)C2CC(O)CN2C(=O)C(NC(=O)Cc2ccc(CNC(=O)OCCC3OC4OC5(C)CCC6C(C)CCC(C3C)C46OO5)cc2)C(C)(C)C)cc1` (stereo not drawn) [CL-23] is 12-fold higher in IC50: 0.52 µM for the first, 6.2 µM for the second.

Going from `Cc1ncsc1-c1ccc(CNC(=O)C2CC(O)CN2C(=O)C(NC(=O)CNC(=O)OCCCC2OC3OC4(C)CCC5C(C)CCC(C2C)C35OO4)C(C)(C)C)cc1` (stereo not drawn) [CL-4] to `Cc1ncsc1-c1ccc(CNC(=O)C2CC(O)CN2C(=O)C(NC(=O)CCNC(=O)OCCCC2OC3OC4(C)CCC5C(C)CCC(C2C)C35OO4)C(C)(C)C)cc1` (stereo not drawn) [CL-8], the IC50 falls from 0.91 µM to 0.24 µM (3.8-fold).

First: Cc1ncsc1-c1ccc(CNC(=O)C2CC(O)CN2C(=O)C(NC(=O)Cc2ccc(CNC(=O)C34CC5CC(C3)C3(OOC6(CCCCC6)O3)C(C5)C4)cc2)C(C)(C)C)cc1 (stereo not drawn) [CL-31]
Second: Cc1ncsc1-c1ccc(CNC(=O)C2CC(O)CN2C(=O)C(NC(=O)CNC(=O)C23CC4CC(C2)C2(OOC5(CCCCC5)O2)C(C4)C3)C(C)(C)C)cc1 (stereo not drawn) [CL-28]
The IC50 of the first is 3.2-fold lower: 3.04 µM for the first, 9.72 µM for the second.

First: Cc1ncsc1-c1ccc(CNC(=O)C2CC(O)CN2C(=O)C(NC(=O)CCOCCOCCOCCNC(=O)C23CC4CC(C2)C2(OOC5(CCCCC5)O2)C(C4)C3)C(C)(C)C)cc1 (stereo not drawn) [CL-27]
Second: Cc1ncsc1-c1ccc(CNC(=O)C2CC(O)CN2C(=O)C(NC(=O)CCNC(=O)C23CC4CC(C2)C2(OOC5(CCCCC5)O2)C(C4)C3)C(C)(C)C)cc1 (stereo not drawn) [CL-32]
The IC50 of the first is 3.6-fold higher: 12 µM for the first, 3.38 µM for the second. The second is the more potent here.

Going from `Cc1ncsc1-c1ccc(CNC(=O)C2CC(O)CN2C(=O)C(NC(=O)CCCCNC(=O)OCCC2OC3OC4(C)CCC5C(C)CCC(C2C)C35OO4)C(C)(C)C)cc1` (stereo not drawn) [CL-22] to `Cc1ncsc1-c1ccc(CNC(=O)C2CC(O)CN2C(=O)C(NC(=O)CCCNC(=O)OCCC2OC3OC4(C)CCC5C(C)CCC(C2C)C35OO4)C(C)(C)C)cc1` (stereo not drawn) [CL-21], the IC50 rises from 0.2 µM to 0.84 µM (4.2-fold). The first is the more potent here.

Compared with `Cc1ncsc1-c1ccc(CNC(=O)C2CC(O)CN2C(=O)C(NC(=O)CCNC(=O)CCC(=O)NN2C(=O)C(C)C3CCC(C)C4CCC5(C)OOC43C2O5)C(C)(C)C)cc1` (stereo not drawn) [CL-40], `Cc1ncsc1-c1ccc(CNC(=O)C2CC(O)CN2C(=O)C(NC(=O)CCNC(=O)OCCC2OC3OC4(C)CCC5C(C)CCC(C2C)C35OO4)C(C)(C)C)cc1` (stereo not drawn) [CL-24] is 12-fold lower in IC50: 6.08 µM for the first, 0.5 µM for the second. The second is the more potent here.

Compared with `Cc1ncsc1-c1ccc(CNC(=O)C2CC(O)CN2C(=O)C(NC(=O)CCOCCOCCNC(=O)OCCCC2OC3OC4(C)CCC5C(C)CCC(C2C)C35OO4)C(C)(C)C)cc1` (stereo not drawn) [CL-2], `Cc1ncsc1-c1ccc(CNC(=O)C2CC(O)CN2C(=O)C(NC(=O)CCOCCOCCNC(=O)OCCC2OC3OC4(C)CCC5C(C)CCC(C2C)C35OO4)C(C)(C)C)cc1` (stereo not drawn) [CL-18] is 4.5-fold higher in IC50: 0.59 µM for the first, 2.66 µM for the second.

Compared with `Cc1ncsc1-c1ccc(CNC(=O)C2CC(O)CN2C(=O)C(NC(=O)CNC(=O)CC2OC3OC4(C)CCC5C(C)CCC(C2C)C35OO4)C(C)(C)C)cc1` (stereo not drawn) [CL-12], `Cc1ncsc1-c1ccc(CNC(=O)C2CC(O)CN2C(=O)C(NC(=O)CCOCCNC(=O)OCCC2OC3OC4(C)CCC5C(C)CCC(C2C)C35OO4)C(C)(C)C)cc1` (stereo not drawn) [CL-17] is 3.7-fold lower in IC50: 1.1 µM for the first, 0.3 µM for the second.

Work on `Cc1ncsc1-c1ccc(CNC(=O)C2CC(O)CN2C(=O)C(NC(=O)Cc2ccc(CNC(=O)OCCCC3OC4OC5(C)CCC6C(C)CCC(C3C)C46OO5)cc2)C(C)(C)C)cc1` (stereo not drawn) [CL-7] yielded an IC50 of 0.46 µM.
